What was measured:
Progesterone receptor = target: T1, Progesterone receptor (Homo sapiens, UniProt P06401); test: Displacement of [3H]progesterone from progesterone receptor in human T47D cells after 1200 mins by scintillation counting method; format: cell-based
T1 sequence (P06401 whole entry): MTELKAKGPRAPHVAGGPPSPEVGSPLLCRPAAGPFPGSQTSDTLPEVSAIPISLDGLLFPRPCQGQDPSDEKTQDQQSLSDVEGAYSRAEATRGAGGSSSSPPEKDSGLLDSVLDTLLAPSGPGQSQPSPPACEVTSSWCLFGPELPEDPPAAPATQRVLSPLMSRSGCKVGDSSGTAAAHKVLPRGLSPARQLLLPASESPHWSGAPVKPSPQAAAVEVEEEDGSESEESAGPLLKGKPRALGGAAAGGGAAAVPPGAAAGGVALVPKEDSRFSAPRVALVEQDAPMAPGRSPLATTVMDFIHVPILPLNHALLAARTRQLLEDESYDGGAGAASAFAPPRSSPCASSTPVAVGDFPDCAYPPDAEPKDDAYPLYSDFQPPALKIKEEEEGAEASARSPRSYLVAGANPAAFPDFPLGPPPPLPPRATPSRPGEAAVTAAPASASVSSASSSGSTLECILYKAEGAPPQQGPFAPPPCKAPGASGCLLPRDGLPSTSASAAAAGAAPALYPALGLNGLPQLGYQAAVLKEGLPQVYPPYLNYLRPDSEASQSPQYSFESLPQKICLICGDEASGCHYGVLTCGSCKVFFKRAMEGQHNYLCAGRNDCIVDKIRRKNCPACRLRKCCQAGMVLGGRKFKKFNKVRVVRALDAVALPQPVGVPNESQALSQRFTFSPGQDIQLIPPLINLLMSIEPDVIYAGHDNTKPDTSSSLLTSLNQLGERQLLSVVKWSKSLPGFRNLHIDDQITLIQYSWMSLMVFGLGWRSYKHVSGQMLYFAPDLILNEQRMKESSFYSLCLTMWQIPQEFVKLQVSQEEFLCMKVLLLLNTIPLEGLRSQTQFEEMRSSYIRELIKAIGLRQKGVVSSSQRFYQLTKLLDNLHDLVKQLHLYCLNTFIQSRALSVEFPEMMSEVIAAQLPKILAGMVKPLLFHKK

[1] = Tmax in Han-Wistar rat at 2.1 mg/kg, po; format: ADME, organism-based; conditions: in vivo
[2] = Terminal half life in Han-Wistar rat at 2.1 mg/kg, po; format: ADME, organism-based; conditions: in vivo, read-out: beta t1/2 (converted)
Rattus norvegicus = test: Dose normalized AUC (0 to infinity) in Han-Wistar rat at 2.1 mg/kg, po; format: ADME, organism-based; conditions: in vivo
[3] = Clearance in Han-Wistar rat at 0.8 mg/kg, iv; format: ADME, organism-based; conditions: in vivo
[4] = Oral bioavailability in Beagle dog at 0.5 mg/kg; format: ADME, organism-based, Canis lupus familiaris; conditions: in vivo
[5] = Clearance in Beagle dog at 0.5 mg/kg, po; format: ADME, organism-based, Canis lupus familiaris; conditions: in vivo
[6] = Ratio of drug level in rat blood to plasma; format: ADME, cell-free; conditions: blood and plasma
[7] = target: T2, Glucocorticoid receptor (Homo sapiens) (UniProt P04150)
T2 sequence (whole entry): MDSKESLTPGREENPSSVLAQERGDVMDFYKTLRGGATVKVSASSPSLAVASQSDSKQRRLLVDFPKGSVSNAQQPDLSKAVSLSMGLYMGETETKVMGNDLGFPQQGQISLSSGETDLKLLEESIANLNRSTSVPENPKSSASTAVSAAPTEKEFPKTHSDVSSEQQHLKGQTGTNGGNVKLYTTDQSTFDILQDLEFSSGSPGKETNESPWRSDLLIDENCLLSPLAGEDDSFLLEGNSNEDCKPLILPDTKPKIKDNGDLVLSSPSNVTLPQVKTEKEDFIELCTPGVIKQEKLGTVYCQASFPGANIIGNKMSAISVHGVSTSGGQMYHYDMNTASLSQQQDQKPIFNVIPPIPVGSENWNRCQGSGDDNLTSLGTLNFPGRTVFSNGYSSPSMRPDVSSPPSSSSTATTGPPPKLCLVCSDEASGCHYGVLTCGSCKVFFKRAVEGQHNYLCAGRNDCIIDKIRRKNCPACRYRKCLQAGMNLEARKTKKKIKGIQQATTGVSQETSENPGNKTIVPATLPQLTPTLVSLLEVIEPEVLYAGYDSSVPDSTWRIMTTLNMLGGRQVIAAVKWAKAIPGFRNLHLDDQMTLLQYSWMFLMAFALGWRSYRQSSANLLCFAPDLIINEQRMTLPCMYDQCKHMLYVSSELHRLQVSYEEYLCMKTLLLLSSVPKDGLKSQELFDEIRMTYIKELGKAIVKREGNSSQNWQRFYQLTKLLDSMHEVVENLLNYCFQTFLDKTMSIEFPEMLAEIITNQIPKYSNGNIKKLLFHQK
Description: Transrepression of GR in cryopreserved human fetal osteoblasts assessed as inhibition of OPG mRNA expression after 4 hrs by RT-qPCR analysis

Glucocorticoid receptor = target: T3, Glucocorticoid receptor (Homo sapiens, UniProt P04150); conditions: blood
T3 sequence (P04150 whole entry): T2 sequence (whole entry)
Description: Therapeutic index, ratio of fIC20 for transrepression of GR in cryopreserved human fetal osteoblasts assessed as inhibition of OPG mRNA expression to fIC30 for transrepression of GR in human whole blood assessed as inhibition of LPS-induced TNF-alpha release

Androgen receptor = target: T4, Androgen receptor (Homo sapiens, UniProt P10275); test: biochemical
T4 sequence (P10275 whole entry): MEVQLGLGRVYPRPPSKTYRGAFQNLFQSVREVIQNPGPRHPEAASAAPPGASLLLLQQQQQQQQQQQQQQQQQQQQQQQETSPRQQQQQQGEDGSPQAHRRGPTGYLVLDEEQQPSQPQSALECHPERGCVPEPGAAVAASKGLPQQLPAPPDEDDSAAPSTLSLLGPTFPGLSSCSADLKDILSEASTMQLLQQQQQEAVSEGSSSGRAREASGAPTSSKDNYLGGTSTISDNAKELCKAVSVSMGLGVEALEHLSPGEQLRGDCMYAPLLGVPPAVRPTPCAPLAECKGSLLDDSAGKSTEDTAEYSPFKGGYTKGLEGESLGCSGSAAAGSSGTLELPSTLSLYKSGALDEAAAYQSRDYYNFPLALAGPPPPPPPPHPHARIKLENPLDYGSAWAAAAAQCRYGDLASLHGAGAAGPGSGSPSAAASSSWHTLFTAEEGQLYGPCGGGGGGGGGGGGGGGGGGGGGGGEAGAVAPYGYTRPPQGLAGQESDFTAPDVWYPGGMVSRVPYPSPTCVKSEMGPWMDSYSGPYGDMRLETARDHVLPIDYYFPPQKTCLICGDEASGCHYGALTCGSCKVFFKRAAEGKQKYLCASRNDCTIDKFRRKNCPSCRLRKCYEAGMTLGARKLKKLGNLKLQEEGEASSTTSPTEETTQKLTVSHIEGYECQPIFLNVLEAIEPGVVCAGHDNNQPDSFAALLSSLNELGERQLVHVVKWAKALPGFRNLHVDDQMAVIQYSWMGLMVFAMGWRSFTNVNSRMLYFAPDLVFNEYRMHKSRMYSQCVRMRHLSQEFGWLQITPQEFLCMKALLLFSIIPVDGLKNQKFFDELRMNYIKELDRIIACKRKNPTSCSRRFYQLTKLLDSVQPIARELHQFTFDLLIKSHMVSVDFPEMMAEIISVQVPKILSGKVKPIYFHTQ
Description: Displacement of [3H]methyltrienolone from androgen receptor in human LNCaP cells after 1440 mins by scintillation counting method

IC50 (Progesterone receptor): 5.3 µM
Tmax [1]: 2 h
half-life [2]: 1.9 h
AUC/dose (Rattus norvegicus): 5.2 µM·h
clearance [3]: 4.5 mL/min/kg
bioavailability [4]: 48%
CL/F [5]: 3.2 mL/min/kg
blood plasma ratio [6]: 0.64
fIC20 [7]: 0.74 nM
TI (Glucocorticoid receptor): 0.55
IC50 (Androgen receptor): > 100 µM
Structure (SMILES): CC(C)[C@H](NC(=O)C(C)(F)F)[C@H](Oc1ccc2c(cnn2-c2ccc(=O)n(C)c2)c1)c1ccccc1 [MIZACORAT]

Source: ChEMBL document CHEMBL4190372, “Discovery of a Novel Oral Glucocorticoid Receptor Modulator (AZD9567) with Improved Side Effect Profile” (J Med Chem, 2018)
